Test results: ChEMBL document CHEMBL6177948, “Discovery of potential Leonurine-based therapeutic lead MJ210 attenuates Parkinson's disease pathogenesis via NF-κB and MAPK pathways: Mechanistic insights from in vitro and in vivo rotenone models” (Eur J Med Chem, 2025)
Calls of active or inactive are those of the source. The rule behind the calls is not given here.

Tests used:
SH-SY5Y [1] = assay: Neuroprotective activity against rotenone-induced cytotoxicity in human SH-SY5Y cells assessed as increase in cell viability at 1 to 20 uM incubated for 24 hrs by MTT assay relative to control; type: functional; settings: dose 1-20 µM
SH-SY5Y [2] = assay: Neuroprotective activity against rotenone-induced ROS formation in human SH-SY5Y cells assessed as decrease in ROS level at 5 uM preincubated with compound for 24 hrs followed by rotenone addition by H2DCFDA staining based fluorescence microscopic analysis; type: functional, cell-based
SH-SY5Y [3] = assay: Neuroprotective activity against rotenone-induced ROS formation in human SH-SY5Y cells assessed as reduction in ROS level by measuring fluorescence intensity at 5 uM preincubated with compound for 24 hrs followed by rotenone addition and measured after 24 hrs by CellRox reagent based fluorescence microscopic analysis; type: functional, cell-based; settings: time 48.0 hrs
SH-SY5Y [4] = assay: Anti-apoptotic activity in rotenone-induced human SH-SY5Y cells assessed as increase in Bcl-xL expression by Western blotting analysis; type: functional, cell-based
SH-SY5Y [5] = assay: Anti-apoptotic activity in rotenone-induced human SH-SY5Y cells assessed as reduction in Bax expression by Western blotting analysis; type: functional, cell-based
SH-SY5Y [6] = assay: Reversal of rotenone-induced mitochondrial membrane depolarization in human SH-SY5Y cells assessed as increase in JC-10 aggregation by measuring red fluorescence at 5 uM preincubated with compound for 24 hrs followed by rotenone addition and measured after 24 hrs by JC-10 based fluorescence microscopic analysis; type: functional, cell-based
SH-SY5Y [7] = assay: Reversal of rotenone-induced mitochondrial membrane depolarization in human SH-SY5Y cells assessed as increase in aggregates to monomer ratio at 5 uM preincubated with compound for 24 hrs followed by rotenone addition and measured after 24 hrs by JC-10 based fluorescence microscopic analysis; type: functional, cell-based; settings: time 48.0 hrs
SH-SY5Y [8] = assay: Reversal of rotenone-induced mitochondrial membrane depolarization in human SH-SY5Y cells assessed as increase in aggregates fluorescence intensity at 5 uM preincubated with compound for 24 hrs followed by rotenone addition and measured after 24 hrs by JC-10 based fluorescence microscopic analysis; type: functional, cell-based; settings: time 48.0 hrs
SH-SY5Y [9] = assay: Reversal of rotenone-induced mitochondrial membrane depolarization in human SH-SY5Y cells assessed as decrease in JC-10 monomers by measuring green fluorescence at 5 uM preincubated with compound for 24 hrs followed by rotenone addition and measured after 24 hrs by JC-10 based fluorescence microscopic analysis; type: functional, cell-based
SH-SY5Y [10] = assay: Anti-inflammatory activity against rotenone-induced human SH-SY5Y cells assessed as reduction in CoX-2 mRNA expression level by RT-qPCR analysis; type: functional, cell-based
Rattus norvegicus [11] = assay: Anti-parkinson activity in rotenone-induced male Wistar rat model assessed as increase in TH expression in substantia nigra at 5 to 10 mg/kg, ip pretreated with compound every alternative days followed by rotenone addition and measured after 42 days by Western blotting analysis; type: functional, organism-based; settings: dose 5-10 mg/kg, time 42.0 day
[12] = Stability in human serum assessed as compound remaining measured after 96 hrs by RP-HPLC analysis relative to control; type: ADME, cell-free; settings: read-out: Stability
Rattus norvegicus [13] = assay: Anti-parkinson activity in rotenone-induced male Wistar rat model assessed as increase TH expression in striatum at 5 mg/kg, ip pretreated with compound every alternative days followed by rotenone addition and measured after 42 days by Western blotting analysis; type: functional, organism-based; settings: time 42.0 day
Rattus norvegicus [14] = assay: Anti-parkinson activity in rotenone-induced male Wistar rat model assessed as increase DAT expression in substantia nigra at 5 mg/kg, ip pretreated with compound every alternative days followed by rotenone addition and measured after 42 days by Western blotting analysis; type: functional, organism-based; settings: time 42.0 day
Rattus norvegicus [15] = assay: Anti-parkinson activity in rotenone-induced male Wistar rat model assessed as improvement in t-turn metrics at 5 mg/kg, ip pretreated with compound every alternative days followed by rotenone addition and measured after 42 days by pole test; type: functional, organism-based; settings: time 42.0 day
Rattus norvegicus [16] = assay: Anti-parkinson activity in rotenone-induced neurodegeneration in male Wistar rat model assessed as reduced edema in cortex at 5 mg/kg, ip pretreated with compound every alternative days followed by rotenone addition and measured after 42 days by H and E staining based analysis; type: functional, organism-based; settings: time 42.0 day
Rattus norvegicus [17] = assay: Anti-parkinson activity in rotenone-induced neurodegeneration in male Wistar rat model assessed as decrease count of pyknotic cells in striatum at 5 mg/kg, ip pretreated with compound every alternative days followed by rotenone addition and measured after 42 days by H and E staining based analysis; type: functional, organism-based; settings: time 42.0 day
Rattus norvegicus [18] = assay: Anti-parkinson activity in rotenone-induced neurodegeneration in male Wistar rat model assessed as decrease count of pyknotic cells in substantia nigra at 5 mg/kg, ip pretreated with compound every alternative days followed by rotenone addition and measured after 42 days by H and E staining based analysis; type: functional, organism-based; settings: time 42.0 day
Rattus norvegicus [19] = assay: Anti-parkinson activity in rotenone-induced neurodegeneration in male Wistar rat model assessed as decrease neuronal damage in substantia nigra at 5 mg/kg, ip pretreated with compound every alternative days followed by rotenone addition and measured after 42 days by Nissl staining based analysis; type: functional, organism-based; settings: time 42.0 day
Rattus norvegicus [20] = assay: Anti-parkinson activity in rotenone-induced neurodegeneration in male Wistar rat model assessed as reduction in pyknotic neurons in striatum at 5 mg/kg, ip pretreated with compound every alternative days followed by rotenone addition and measured after 42 days by Nissl staining based analysis; type: functional, organism-based; settings: time 42.0 day
Rattus norvegicus [21] = assay: Anti-parkinson activity in rotenone-induced neurodegeneration in male Wistar rat model assessed as reduction in necrosis in cortex at 5 mg/kg, ip pretreated with compound every alternative days followed by rotenone addition and measured after 42 days by Nissl staining based analysis; type: functional, organism-based; settings: time 42.0 day
Rattus norvegicus [22] = assay: In vivo inhibition of MAPK signaling pathway in rotenone-induced parkinson disease male Wistar rat model assessed as reduction in P-38 phosphorylation level in substantia nigra at 5 mg/kg, ip pretreated with compound every alternative days followed by rotenone addition and measured after 42 days by Western blotting analysis; type: functional, organism-based; settings: time 42.0 day
Rattus norvegicus [23] = assay: In vivo inhibition of MAPK signaling pathway in rotenone-induced parkinson disease male Wistar rat model assessed as reduction in JNK phosphorylation level in substantia nigra at 5 mg/kg, ip pretreated with compound every alternative days followed by rotenone addition and measured after 42 days by Western blotting analysis; type: functional, organism-based; settings: time 42.0 day
Rattus norvegicus [24] = assay: In vivo inhibition of MAPK signaling pathway in rotenone-induced parkinson disease male Wistar rat model assessed as reduction in JNK phosphorylation level in striatum at 5 mg/kg, ip pretreated with compound every alternative days followed by rotenone addition and measured after 42 days by Western blotting analysis; type: functional, organism-based; settings: time 42.0 day
[25] = Toxicity in male Wistar rat assessed as change in cellular structure of spleen at 1 to 10 mg/kg by H and E staining based analysis; type: organism-based; settings: in vivo, dose 1-10 mg/kg
Rattus norvegicus [26] = assay: Anti-inflammatory activity in rotenone-induced male Wistar rat model assessed as reduction in phosphorylated NF-kappaB P65 protein expression level in substantia nigra at 5 mg/kg, ip pretreated with compound every alternative days followed by rotenone addition and measured after 42 days by ELISA; type: functional, organism-based; settings: time 42.0 day
[27] = Toxicity in male Wistar rat assessed as change in cellular structure of heart at 1 to 10 mg/kg by H and E staining based analysis; type: organism-based; settings: in vivo, dose 1-10 mg/kg
[28] = Toxicity in male Wistar rat assessed as change in liver morphology at 1 to 10 mg/kg by H and E staining based analysis; type: organism-based; settings: in vivo, dose 1-10 mg/kg
[29] = Toxicity in male Wistar rat assessed as change in spleen morphology at 1 to 10 mg/kg by H and E staining based analysis; type: organism-based; settings: in vivo, dose 1-10 mg/kg
[30] = Half life in male Wistar rat at 50 mg/kg, ip measured after 24 hrs; type: ADME, organism-based; settings: in vivo

For `COc1cc(CCC(=O)N2CCCCC2)cc(OC)c1OC(=O)c1ccccn1`, the Activity (SH-SY5Y [1]) was 81.9%, the Activity (SH-SY5Y [2]) was “Active” and the Activity (SH-SY5Y [3]) was “Active”. The Activity (SH-SY5Y [4]) was “Active”, the Activity (SH-SY5Y [5]) was “Active” and the Activity (SH-SY5Y [6]) was “Active”. For the same compound, the Activity (SH-SY5Y [7]) was “Active”, the Activity (SH-SY5Y [8]) was “Active” and the Activity (SH-SY5Y [9]) was “Active”. The Activity (SH-SY5Y [10]) was “Active”, the Activity (Rattus norvegicus [11]) was “Active” and the remaining at 96 h [12] was 86%. The Activity (Rattus norvegicus [13]) was “Active”, the Activity (Rattus norvegicus [14]) was “Active” and the Activity (Rattus norvegicus [15]) was “Active”. For the same compound, the Activity (Rattus norvegicus [16]) was “Active”, the Activity (Rattus norvegicus [17]) was “Active” and the Activity (Rattus norvegicus [18]) was “Active”. The Activity (Rattus norvegicus [19]) was “Active”, the Activity (Rattus norvegicus [20]) was “Active” and the Activity (Rattus norvegicus [21]) was “Active”. The inhibition (Rattus norvegicus [22]) was “Active”, the inhibition (Rattus norvegicus [23]) was “Active” and the inhibition (Rattus norvegicus [24]) was “Active”. For the same compound, the Activity [25] was “Non-toxic”, the Activity (Rattus norvegicus [26]) was “Active” and the Activity [27] was “Non-toxic”. The Activity [28] was “Non-toxic”, the Activity [29] was “Non-toxic” and the half-life [30] was 8.5 h.
